Measurements from patent US9408856B2, “Topical steroidal formulations” (Temple University—Of The Commonwealth System of Higher …, priority 2008, dated 2016).
Where “and” joins values, the source holds several entries; their conditions need not be identical. Identical values can stand only once.

Legend:
[1] = system: TPA-stimulated epidermal DNA synthesis in mouse epidermis; experiment: TPA-induced epidermal DNA synthesis in mouse epidermis, transdermal fluasterone; type: in vivo, CD-1 mice; conditions: 20 h
[2] = system: TPA-stimulated epidermal DNA synthesis in mouse epidermis; experiment: as above; type: in vivo, CD-1 mice; conditions: for cpm/μg DNA: 20 h, single mice and group mean
Experimental: In dose-response experiments the anti-hyperplastic efficacy of fluasterone in TPA-treated mouse epidermis to determine bioavailability following different routes of administration was measured. Mice were treated with a single dose of fluasterone (either orally, subcutaneously, or transdermally) followed by a single application of TPA to the shaved back one hour latter. In case of transdermal administration, fluasterone is applied in a topical formulation to the shaved abdomen to allow for systemic absorption to the back of the animal. Twenty hours after TPA application, the mice are injected with 60 μCi of [3H] thymidine, sacrificed 20 minutes later, and a 2×2 cm2 of skin from the shaved back is excised and processed for the determination of the amount of [3H] thymidine incorporated per unit of epidermal DNA. (Hennings et. al., Cancer Res. 28:543-552, 1968).
Female CD-1 mice, 40-43 days old, were obtained from Charles River Laboratories, Kingston, N.Y. The mice were housed two per cage in plastic shoebox cages on Absorbdri bedding with 12 hours of alternating light and dark in the Central Animal Facility. The mice had ad libitum access to Purina 5015 chow and acidified tap water (pH S 2.6). The mice were allowed to acclimate to the facility for approximately two weeks prior to use in an experiment. […]
The mice were weighed, marked with magic marker on the tail, and shaved on the back and the abdomen one day prior to treatment. Only those mice showing no hair regrowth were used in the experiment. Fluasterone was applied to the shaved abdomen one hour before TPA was applied to the shaved back. The mice were anesthetized and on their backs prior to topical application of TPA. […]
The mice were anesthetized with Isoflurane, and then were given an intramuscular injection of 0.1 mL solution of ketamine (50 mg/kg), xylazine (10 mg/kg) and atropine (0.1 mg/kg). Approximately 10 minutes after the i.m. injection (after the mice could not turn over when placed on their backs), the mice were treated with 5 μL of a 12.5 mg/mL fluasterone/carbitol solution to give a dose of 2.5 mg/kg. The mice were anesthetized and on their backs for approximately 30 minutes after application of fluasterone/carbitol solution. One hour after the application of fluasterone/carbitol solution, 2 μg of TPA dissolved in. 0.2 mL of acetone was applied to the shaved area on the back of each mouse. […]
The mice were anesthetized with Isoflurane, and then were given an intramuscular injection of 0.1 mL solution of ketamine (50 mg/kg), xylazine (10 mg/kg) and atropine (0.1 mg/kg). Approximately 10 minutes after the i.m. injection (after the mice could not turn over when placed on their backs), the mice were treated with 2.5 μl, of a 12.5 mg/mL fluasterone/carbitol solution to give a dose of 1.25 mg/kg. The mice were anesthetized and on their backs for approximately 30 minutes after application of fluasterone/carbitol solution. One hour after the application of fluasterone/carbitol solution, 2 μg of TPA dissolved in 0.2 mL of acetone was applied to the shaved area on the back of each mouse.
The mice were anesthetized with Isoflurane, and then were given an intramuscular injection of 0.1 mL solution of ketamine (50 mg/kg), xylazine (10 mg/kg) and atropine (0.1 mg/kg). Approximately 10 minutes after the i.m. injection (after the mice could not turn over when placed on their backs), the mice were treated with 10 μL of a 12.5 mg/mL fluasterone/Cremophor EL solution to give a dose of 5 mg/kg. The mice were anesthetized and on their backs for approximately 30 minutes after application of fluasterone/Cremophor EL solution. One hour after the application of fluasterone/Cremophor EL solution, 2 μg of TPA dissolved in 0.2 mL of acetone was applied to the shaved area on the back of each mouse.
The mice were anesthetized with Isoflurane, and then were given an intramuscular injection of 0.1 mL solution of ketamine (50 mg/kg), xylazine (10 mg/kg) and atropine (0.1 mg/kg). […]

[3] = carbitol solution, 5 mg/kg transdermal (abdomen) 1 h before 2 μg TPA (back), single mice, 5 mg/kg
[4] = ethanol:limonene:isopropyl myristate (81:15:4) solution, 1.5 mg/kg transdermal (abdomen) 1 h before 2 μg TPA (back), single mice, 1.5 mg/kg
[5] = ethanol:limonene:isopropyl myristate (81:15:4) solution, 5 mg/kg transdermal (abdomen) 1 h before 2 μg TPA (back), single mice, 5 mg/kg
[6] = micronized suspension in ethanol:water:Tween 80 (76:19:5), 1.5 mg/kg transdermal (abdomen) 1 h before 2 μg TPA (back), single mice and group mean, 1.5 mg/kg
[7] = micronized suspension in ethanol:water:Tween 80 (76:19:5), 1.5 mg/kg transdermal (abdomen) 1 h before 2 μg TPA (back), single mice, 1.5 mg/kg
[8] = micronized suspension in ethanol:water:Tween 80 (76:19:5), 2.5 mg/kg transdermal (abdomen) 1 h before 2 μg TPA (back), single mice, 2.5 mg/kg

C[C@]12CCCCC1=CC[C@@H]1[C@@H]2CC[C@]2(C)C(=O)[C@H](F)C[C@@H]12 [Fluasterone, 16α-fluoro-5-androsten-17-one]
μg DNA/0.2 mL ([1]; carbitol solution, 2.5 mg/kg transdermal (abdomen) 1 h before 2 μg TPA (back), single mice, 2.5 mg/kg): 9.5 μg DNA/0.2 mL and 8.8 μg DNA/0.2 mL
corrected cpm [1, 3]: 5,338 cpm and 5,045 cpm
cpm [1, 3]: 5,373 cpm and 5,080 cpm
μg DNA/0.2 mL [1, 3]: 10.0 μg DNA/0.2 mL and 10.8 μg DNA/0.2 mL
μg DNA/0.2 mL ([1]; ethanol:limonene:isopropyl myristate (81:15:4) solution, 1.5 mg/kg transdermal (abdomen) 1 h before 2 μg TPA (back), single mice and group mean, 1.5 mg/kg): 25.8 μg DNA/0.2 mL and 25.1 μg DNA/0.2 mL
corrected cpm [1, 4]: 5,854 cpm and 3,703 cpm
cpm [1, 4]: 5,883 cpm and 3,732 cpm
μg DNA/0.2 mL ([1]; ethanol:limonene:isopropyl myristate (81:15:4) solution, 2.5 mg/kg transdermal (abdomen) 1 h before 2 μg TPA (back), single mice and group mean (p < 0.05 vs TPA), 2.5 mg/kg): 18.1 μg DNA/0.2 mL and 15.3 μg DNA/0.2 mL
μg DNA/0.2 mL ([1]; ethanol:limonene:isopropyl myristate (81:15:4) solution, 5 mg/kg transdermal (abdomen) 1 h before 2 μg TPA (back), single mice and group mean (p < 0.05 vs TPA), 5 mg/kg): 15.9 μg DNA/0.2 mL and 17.3 μg DNA/0.2 mL
cpm/μg DNA ([1]; ethanol:limonene:isopropyl myristate (81:15:4) solution, 5 mg/kg transdermal (abdomen) 1 h before 2 μg TPA (back), single mice and group mean, 5 mg/kg): 532.5 cpm/μg DNA and 603.2 cpm/μg DNA
corrected cpm [1, 5]: 8,467 cpm and 10,436 cpm
cpm [1, 5]: 8,496 cpm and 10,465 cpm
cpm/μg DNA [1, 6]: 135.7 cpm/μg DNA and 98.9 cpm/μg DNA
μg DNA/0.2 mL [1, 6]: 34.3 μg DNA/0.2 mL and 35.2 μg DNA/0.2 mL
corrected cpm [1, 7]: 4,655 cpm and 3,481 cpm
cpm [1, 7]: 4,684 cpm and 3,510 cpm
μg DNA/0.2 mL ([1]; micronized suspension in ethanol:water:Tween 80 (76:19:5), 2.5 mg/kg transdermal (abdomen) 1 h before 2 μg TPA (back), single mice and group mean (p < 0.02 vs TPA), 2.5 mg/kg): 19.6 μg DNA/0.2 mL and 16.6 μg DNA/0.2 mL
cpm/μg DNA ([1]; micronized suspension in ethanol:water:Tween 80 (76:19:5), 2.5 mg/kg transdermal (abdomen) 1 h before 2 μg TPA (back), single mice and group mean, 2.5 mg/kg): 109.5 cpm/μg DNA and 139.0 cpm/μg DNA
corrected cpm [1, 8]: 2,147 cpm and 2,308 cpm
cpm [1, 8]: 2,176 cpm and 2,337 cpm
μg DNA/0.2 mL ([1]; micronized suspension in ethanol:water:Tween 80 (76:19:5), 5 mg/kg transdermal (abdomen) 1 h before 2 μg TPA (back), single mice and group mean (p < 0.01 vs TPA), 5 mg/kg): 16.5 μg DNA/0.2 mL and 18.9 μg DNA/0.2 mL
cpm/μg DNA ([2]; Cremophor EL solution, 1.25 mg/kg transdermal (abdomen) 1 h before 2 μg TPA (back), 1.25 mg/kg): 507.3 cpm/μg DNA and 414.3 cpm/μg DNA and 460.1 ± 65.8 cpm/μg DNA
cpm/μg DNA ([2]; Cremophor EL solution, 5 mg/kg transdermal (abdomen) 1 h before 2 μg TPA (back), 5 mg/kg): 116.7 cpm/μg DNA and 147.4 cpm/μg DNA and 132.1 ± 21.7 cpm/μg DNA
lowest effective dose ([2]; Tween 80:ethanol (50:50 v/v) solution, transdermal): ≤ 2.5 mg/kg
cpm/μg DNA ([2]; carbitol solution, 1.9 mg/kg transdermal (abdomen) 1 h before 2 μg TPA (back), 1.9 mg/kg): 365.9 cpm/μg DNA and 227.7 cpm/μg DNA and 296.8 ± 97.7 cpm/μg DNA
cpm/μg DNA ([2]; carbitol solution, 5 mg/kg transdermal (abdomen) 1 h before 2 μg TPA (back), 5 mg/kg): 533.8 cpm/μg DNA and 467.1 cpm/μg DNA and 500.5 ± 47.2 cpm/μg DNA
cpm/μg DNA ([2]; ethanol:limonene:isopropyl myristate (81:15:4) solution, 1.5 mg/kg transdermal (abdomen) 1 h before 2 μg TPA (back), 1.5 mg/kg): 226.9 cpm/μg DNA and 147.5 cpm/μg DNA
transdermal potency compared with s.c. administration in abolishing TPA-stimulated hyperplasia ([2]; mice): as potent as subcutaneous injection
transdermal dose that suppresses TPA-stimulated epidermal [3H]thymidine incorporation and/or epidermal DNA content ([2]; topical solutions and suspension applied to abdomen): 2.5 mg/kg
